Assay results published in patent US20240018158A1, “BRM TARGETING COMPOUNDS AND ASSOCIATED METHODS OF USE” (Prelude Therapeutics Incorporated, priority 2020, published 2024).

Biological target: SMARCA2 (Homo sapiens (Human), UniProt P51531)
Test: SMARCA2 HiBiT degradation assay in HEK293T cells
Format: cell-based
Conditions: 293T HiBiT assay, 24 h; for DC50: read-out: DC50 (SM2-293T) SMARCA2 degradation potency; for Dmax: HEK-293T, read-out: Dmax % (SM2-293T) maximum SMARCA2 degradation within the concentrations tested
Procedure: HiBiT peptide knock-in of SMARCA2 in LgBiT expressing HEK293T cells was performed by CRISPR-mediated tagging system as described Promega. The homozygous HiBiT knock-in on c-terminus SMARCA2 was confirmed by sanger sequence. SMARCA2-HiBiT knock-in Hela monoclonal cell (CS302366) and SMARCA4-HiBiT knock-in Hela monoclonal cell (CS3023226) were purchased from Promega. The heterozygous HiBiT-knock-in was confirmed by sanger sequence in both SMARCA2-HiBiT and SMARCA4-HiBiT monoclonal cells. Compounds were prepared in a low dead volume plate at 3-fold serial dilution, and then transferred 25 nL/well into a 384 well plate (Corning: #356661) by Agilent Bravo liquid dispenser. SMARCA2-HiBiT monoclonal HEK293T cells were added at 5,000/well/25 uL into the compound containing 384 well plate. After 24 h incubation, 25 uL/well of Nano-Glo HiBiT Lytic detection buffer (Promega: N3050) was added to the wells and incubate for 10 min on a shaker, centrifuged for 5 min, and then RLU was detected on a microplate reader (Envision, PerkinElmer). The RLU ratio values are normalized to percent inhibition as follows: % inhibition=((HC−LC)−(compound−LC))/(HC−LC))*100, where HC=high control=mean signal of DMSO only; LC=low control=mean signal of 100% inhibition of RLU by 1 μM PRT1001728. An 11-point dose response curve for each compound will be generated using normalized % inhibition to determine IC50 values based on the equation: Y=Bottom+((Top-Bottom)/(1+((IC50/X)^Slope))), where Y is the % inhibition in the presence of X inhibitor concentration; Top=the top plateau of the curve; Bottom=the bottom plateau of the curve; Slope=Hill coefficient; DC50=concentration of compound with 50% degradation in relation to top/high control. DC50 values were determined by using XLfit Model 205.

SMARCA2, sequence (P51531 whole entry): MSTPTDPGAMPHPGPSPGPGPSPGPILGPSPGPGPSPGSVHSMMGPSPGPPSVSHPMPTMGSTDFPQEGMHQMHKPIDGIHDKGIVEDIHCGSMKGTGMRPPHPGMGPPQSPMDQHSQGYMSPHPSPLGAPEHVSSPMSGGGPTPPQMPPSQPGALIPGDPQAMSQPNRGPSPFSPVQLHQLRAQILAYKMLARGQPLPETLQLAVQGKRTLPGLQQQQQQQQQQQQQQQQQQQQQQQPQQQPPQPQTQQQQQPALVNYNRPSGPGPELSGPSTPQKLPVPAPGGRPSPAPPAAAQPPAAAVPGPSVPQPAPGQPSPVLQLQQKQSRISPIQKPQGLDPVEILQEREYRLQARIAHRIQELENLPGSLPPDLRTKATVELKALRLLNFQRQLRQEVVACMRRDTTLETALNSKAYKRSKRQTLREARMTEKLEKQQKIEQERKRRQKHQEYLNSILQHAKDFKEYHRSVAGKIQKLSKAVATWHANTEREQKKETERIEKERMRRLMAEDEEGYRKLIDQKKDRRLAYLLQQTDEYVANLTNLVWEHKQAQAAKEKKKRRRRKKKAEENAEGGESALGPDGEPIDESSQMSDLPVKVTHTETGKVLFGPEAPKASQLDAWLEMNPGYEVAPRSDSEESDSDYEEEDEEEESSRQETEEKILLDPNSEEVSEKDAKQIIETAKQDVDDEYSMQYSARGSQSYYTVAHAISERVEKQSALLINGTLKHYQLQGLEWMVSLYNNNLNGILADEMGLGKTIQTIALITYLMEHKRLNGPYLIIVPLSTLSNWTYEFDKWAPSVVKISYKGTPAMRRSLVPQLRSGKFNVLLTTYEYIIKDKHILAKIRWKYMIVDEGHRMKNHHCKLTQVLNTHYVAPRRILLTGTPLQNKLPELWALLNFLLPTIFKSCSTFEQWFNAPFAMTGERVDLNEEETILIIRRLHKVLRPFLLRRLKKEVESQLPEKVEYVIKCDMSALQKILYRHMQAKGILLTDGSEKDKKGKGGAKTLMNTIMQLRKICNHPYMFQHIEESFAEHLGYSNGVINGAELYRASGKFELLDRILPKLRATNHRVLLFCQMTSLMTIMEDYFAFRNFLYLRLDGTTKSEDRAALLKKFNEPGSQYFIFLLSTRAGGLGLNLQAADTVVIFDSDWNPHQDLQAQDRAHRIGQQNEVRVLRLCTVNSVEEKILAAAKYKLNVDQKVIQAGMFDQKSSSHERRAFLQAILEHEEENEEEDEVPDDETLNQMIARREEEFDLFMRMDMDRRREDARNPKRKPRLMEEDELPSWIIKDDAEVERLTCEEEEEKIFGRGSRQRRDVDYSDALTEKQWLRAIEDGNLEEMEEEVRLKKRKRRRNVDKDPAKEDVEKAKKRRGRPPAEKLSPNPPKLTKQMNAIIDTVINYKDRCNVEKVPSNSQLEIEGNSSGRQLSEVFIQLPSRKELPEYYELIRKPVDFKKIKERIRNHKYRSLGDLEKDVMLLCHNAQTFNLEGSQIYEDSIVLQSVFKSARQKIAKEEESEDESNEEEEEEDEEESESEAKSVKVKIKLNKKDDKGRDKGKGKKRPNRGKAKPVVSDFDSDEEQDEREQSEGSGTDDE

Structure (SMILES): Cc1ncsc1-c1ccc([C@H](C)NC(=O)[C@@H]2C[C@@H](O)CN2C(=O)[C@@H](c2cc(OCCN3CCC(CN4CCN5c6cc(-c7ccccc7O)nnc6NC[C@H]5C4)C(C)(C)C3)no2)C(C)C)cc1 (stereo partly drawn) [Example 87, (2S,4R)-4-hydroxy-1-((2R)-2-(3-(2-(4-(((S)-2-(2-hydroxyphenyl)-5,6,6a,7,9,10-hexahydro-8H-pyrazino[1′,2′:4,5]pyrazino[2,3-c]pyridazin-8-yl)methyl)-3,3-dimethylpiperidin-1-yl)ethoxy)isoxazol-5-yl)-3-methylbutanoyl)-N-((S)-1-(4-(4-methylthiazol-5-yl)phenyl)ethyl)pyrrolidine-2-carboxamide]
- DC50: < 0.1 µM
- Dmax: > 75%

Structure (SMILES): Cc1ncsc1-c1ccc([C@H](C)NC(=O)[C@@H]2C[C@@H](O)CN2C(=O)[C@@H](NC(=O)CN2CCC(N3CCN4c5cc(-c6ccccc6O)nnc5NC[C@@H]4C3)CC2)C(C)(C)C)cc1 [Example 79, (2S,4R)-4-hydroxy-1-((S)-2-(2-(4-((R)-2-(2-hydroxyphenyl)-5,6,6a,7,9,10-hexahydro-8H-pyrazino[1′,2′:4,5]pyrazino[2,3-c]pyridazin-8-yl)piperidin-1-yl)acetamido)-3,3-dimethylbutanoyl)-N-((S)-1-(4-(4-methylthiazol-5-yl)phenyl)ethyl)pyrrolidine-2-carboxamide]
- DC50: < 0.1 µM
- Dmax: > 75%

Structure (SMILES): Cc1ncsc1-c1ccc([C@H](C)NC(=O)[C@@H]2C[C@@H](O)CN2C(=O)[C@@H](c2cc(OC(C)CN3CCCC(CN4CCN5c6cc(-c7ccccc7O)nnc6NC[C@H]5C4)CC3)no2)C(C)C)cc1 (stereo partly drawn) [Example 67, (2S,4R)-4-hydroxy-1-((2R)-2-(3-((1-(4-(((S)-2-(2-hydroxyphenyl)-5,6,6a,7,9,10-hexahydro-8H-pyrazino[1′,2′:4,5]pyrazino[2,3-c]pyridazin-8-yl)methyl)azepan-1-yl)propan-2-yl)oxy)isoxazol-5-yl)-3-methylbutanoyl)-N-((S)-1-(4-(4-methylthiazol-5-yl)phenyl)ethyl)pyrrolidine-2-carboxamide]
- DC50: < 0.1 µM
- Dmax: > 75%

Structure (SMILES): Cc1ncsc1-c1ccc([C@H](C)NC(=O)[C@@H]2C[C@@H](O)CN2C(=O)[C@@H](NC(=O)CN2CCC(N3CCN4c5cc(-c6ccccc6O)nnc5NC[C@H]4C3)CC2)C(C)(C)C)cc1 [Example 11, (2S,4R)-4-hydroxy-1-((S)-2-(2-(4-((S)-2-(2-hydroxyphenyl)-5,6,6a,7,9,10-hexahydro-8H-pyrazino[1′,2′:4,5]pyrazino[2,3-c]pyridazin-8-yl)piperidin-1-yl)acetamido)-3,3-dimethylbutanoyl)-N-((S)-1-(4-(4-methylthiazol-5-yl)phenyl)ethyl)pyrrolidine-2-carboxamide]
- DC50: < 0.1 µM
- Dmax: > 75%

Structure (SMILES): Cc1ncsc1-c1ccc([C@H](C)NC(=O)[C@@H]2C[C@@H](O)CN2C(=O)[C@@H](c2cc(OCCN3CCC(CN4CCC(N5CCN6c7cc(-c8ccccc8O)nnc7NC[C@H]6C5)CC4)CC3)no2)C(C)C)cc1 [Example 20, (2S,4R)-4-hydroxy-1-((R)-2-(3-(2-(4-((4-((S)-2-(2-hydroxyphenyl)-5,6,6a,7,9,10-hexahydro-8H-pyrazino[1′,2′:4,5]pyrazino[2,3-c]pyridazin-8-yl)piperidin-1-yl)methyl)piperidin-1-yl)ethoxy)isoxazol-5-yl)-3-methylbutanoyl)-N-((S)-1-(4-(4-methylthiazol-5-yl)phenyl)ethyl)pyrrolidine-2-carboxamide]
- DC50: < 0.1 µM
- Dmax: > 75%

Structure (SMILES): Cc1ncsc1-c1ccc([C@H](C)NC(=O)[C@@H]2C[C@@H](O)CN2C(=O)[C@@H](c2cc(OC(C)CN3CCC(N4CCN5c6cc(-c7ccccc7O)nnc6NC[C@H]5C4)CC3)no2)C(C)C)cc1 (stereo partly drawn) [Example 17, (2S,4R)-4-hydroxy-1-((2R)-2-(3-((1-(4-((S)-2-(2-hydroxyphenyl)-5,6,6a,7,9,10-hexahydro-8H-pyrazino[1′,2′:4,5]pyrazino[2,3-c]pyridazin-8-yl)piperidin-1-yl)propan-2-yl)oxy)isoxazol-5-yl)-3-methylbutanoyl)-N-((S)-1-(4-(4-methylthiazol-5-yl)phenyl)ethyl)pyrrolidine-2-carboxamide]
- DC50: < 0.1 µM
- Dmax: > 75%

Structure (SMILES): Cc1ncsc1-c1ccc([C@H](C)NC(=O)[C@@H]2C[C@@H](O)CN2C(=O)[C@@H](c2cc(OCCN3CCC(CCN4CCC(N5CCN6c7cc(-c8ccccc8O)nnc7NC[C@H]6C5)CC4)CC3)no2)C(C)C)cc1 [Example 22, (2S,4R)-4-hydroxy-1-((R)-2-(3-(2-(4-(2-(4-((S)-2-(2-hydroxyphenyl)-5,6,6a,7,9,10-hexahydro-8H-pyrazino[1′,2′:4,5]pyrazino[2,3-c]pyridazin-8-yl)piperidin-1-yl)ethyl)piperidin-1-yl)ethoxy)isoxazol-5-yl)-3-methylbutanoyl)-N-((S)-1-(4-(4-methylthiazol-5-yl)phenyl)ethyl)pyrrolidine-2-carboxamide]
- DC50: < 0.1 µM
- Dmax: > 75%

Structure (SMILES): Cc1ncsc1-c1ccc([C@H](C)NC(=O)[C@@H]2C[C@@H](O)CN2C(=O)[C@@H](NC(=O)CCN2CCC(CN3CCN4c5cc(-c6ccccc6O)nnc5NCC4C3)CC2)C(C)(C)C)cc1 (stereo partly drawn) [Example 8, (2S,4R)-4-hydroxy-1-((2S)-2-(3-(4-((2-(2-hydroxyphenyl)-5,6,6a,7,9,10-hexahydro-8H-pyrazino[1′,2′:4,5]pyrazino[2,3-c]pyridazin-8-yl)methyl)piperidin-1-yl)propanamido)-3,3-dimethylbutanoyl)-N-((S)-1-(4-(4-methylthiazol-5-yl)phenyl)ethyl)pyrrolidine-2-carboxamide]
- DC50: 0.1 to 1 µM
- Dmax: > 75%

Structure (SMILES): Cc1ncsc1-c1ccc([C@H](C)NC(=O)[C@@H]2C[C@@H](O)CN2C(=O)[C@@H](c2cc(OCCN3CCC(N4CCN5c6cc(-c7ccccc7O)nnc6NC[C@@H]5C4)CC3)no2)C(C)C)cc1 [Example 77, (2S,4R)-4-hydroxy-1-((R)-2-(3-(2-(4-((R)-2-(2-hydroxyphenyl)-5,6,6a,7,9,10-hexahydro-8H-pyrazino[1′,2′:4,5]pyrazino[2,3-c]pyridazin-8-yl)piperidin-1-yl)ethoxy)isoxazol-5-yl)-3-methylbutanoyl)-N-((S)-1-(4-(4-methylthiazol-5-yl)phenyl)ethyl)pyrrolidine-2-carboxamide]
- DC50: < 0.1 µM
- Dmax: > 75%

Structure (SMILES): Cc1ncsc1-c1ccc([C@H](C)NC(=O)[C@@H]2C[C@@H](O)CN2C(=O)[C@@H](c2cc(OC(C)CN3CCCC(CN4CCN5c6cc(-c7ccccc7O)nnc6NC[C@H]5C4)C3)no2)C(C)C)cc1 (stereo partly drawn) [Example 23, (2S,4R)-4-hydroxy-1-((2R)-2-(3-((1-(3-(((S)-2-(2-hydroxyphenyl)-5,6,6a,7,9,10-hexahydro-8H-pyrazino[1′,2′:4,5]pyrazino[2,3-c]pyridazin-8-yl)methyl)piperidin-1-yl)propan-2-yl)oxy)isoxazol-5-yl)-3-methylbutanoyl)-N-((S)-1-(4-(4-methylthiazol-5-yl)phenyl)ethyl)pyrrolidine-2-carboxamide]
- DC50: < 0.1 µM
- Dmax: > 75%

Structure (SMILES): Cc1ncsc1-c1ccc([C@H](C)NC(=O)[C@@H]2C[C@@H](O)CN2C(=O)[C@@H](c2cc(CCCN3CCCC(CN4CCN5c6cc(-c7ccccc7O)nnc6NC[C@H]5C4)C3)no2)C(C)C)cc1 (single isomer, unassigned) [Example 88]
- DC50: < 0.1 µM
- Dmax: > 75%

Structure (SMILES): Cc1ncsc1-c1ccc([C@H](C)NC(=O)[C@@H]2C[C@@H](O)CN2C(=O)[C@@H](c2cc(OCCN3CCC(CN4CCN5c6cc(-c7ccccc7O)nnc6NC[C@H]5C4)CC3)no2)C(C)C)c(F)c1 [Example 36, (2S,4R)-N-((S)-1-(2-fluoro-4-(4-methylthiazol-5-yl)phenyl)ethyl)-4-hydroxy-1-((R)-2-(3-(2-(4-(((S)-2-(2-hydroxyphenyl)-5,6,6a,7,9,10-hexahydro-8H-pyrazino[1′,2′:4,5]pyrazino[2,3-c]pyridazin-8-yl)methyl)piperidin-1-yl)ethoxy)isoxazol-5-yl)-3-methylbutanoyl)pyrrolidine-2-carboxamide]
- DC50: < 0.1 µM
- Dmax: > 75%

Structure (SMILES): COc1cc(-c2scnc2C)ccc1[C@H](C)NC(=O)[C@@H]1C[C@@H](O)CN1C(=O)[C@@H](c1cc(OCCN2CCC(CN3CCN4c5cc(-c6ccccc6O)nnc5NC[C@H]4C3)CC2)no1)C(C)C [Example 40, (2S,4R)-4-hydroxy-1-((R)-2-(3-(2-(4-(((S)-2-(2-hydroxyphenyl)-5,6,6a,7,9,10-hexahydro-8H-pyrazino[1′,2′:4,5]pyrazino[2,3-c]pyridazin-8-yl)methyl)piperidin-1-yl)ethoxy)isoxazol-5-yl)-3-methylbutanoyl)-N-((S)-1-(2-methoxy-4-(4-methylthiazol-5-yl)phenyl)ethyl)pyrrolidine-2-carboxamide]
- DC50: < 0.1 µM
- Dmax: > 75%
